PMC6858373 (Scientific Reports, 2019)
Like-named read-outs stand apart in the source and are kept apart here.

Tests used:
Clone V cells [1] = assay: CellTiter Blue (CTB) cell viability counter-screen; details: CC_NCI screening, normalized to on-plate 0.3% DMSO controls; for Toxicity Assay % Fluor: CTB cell viability fluorescence; for Toxicity Assay Z-score: CTB cell viability
[2] = target: T1, FGF14:Nav1.6 C-tail complex (Homo sapiens, UniProt Q92915+Q9UQD0); assay: Split-luciferase complementation assay (LCA) in Clone V double stable HEK293 cells; assay type: cell-based; details: for Split Luciferase Assay % Lum Set 1 / Split Luciferase Assay Z-score Set 1: biological replicate Set 1; for Split Luciferase Assay % Lum Set 1 / Split Luciferase Assay %Lum Set 2: normalized to on-plate 0.3% DMSO controls (n=16 per plate); for Split Luciferase Assay %Lum Set 2 / Split Luciferase Assay Z-score Set 2: biological replicate Set 2; for Split Luciferase Assay Z-score Set 1 / Split Luciferase Assay Z-score Set 2: normalized to on-plate 0.3% DMSO controls; for Split Luciferase Assay %Lum Avg: average of Set 1 and Set 2, normalized to 0.3% DMSO controls; for signal-background (S:B) ratio: 50 ng/mL TNF-α vs 0.3% DMSO, n = 16
T1 construct: polymerase chain reaction (PCR) amplification of the FGF14 open reading frame (nt 1–855); C-terminal fragment of Nav1.6 (amino acids 1763–1976) fused with CD4ΔC-tail (amino acids 1–395); expressed in transfected cells

[3] = target: full-length P. pyralis luciferase (Photinus pyralis, UniProt P08659, K549A/L550V/N119G/N50D/S548I); assay type: cell-based; details: for Luciferase Assay % Lum / Luciferase Assay Z-score / Luciferase Assay % Lum (full-length luciferase counter-screen) / Luciferase Assay Z-score (full-length luciferase counter-screen): CC_NCI screening, normalized to on-plate 0.3% DMSO controls; for Luciferase Assay % Lum: full-length luciferase counter-screen luminescence; for Luciferase Assay Z-score: full-length luciferase counter-screen
Clone V cells [4] = test system: Clone V cells
[5] = CC_NCI screening, LCA luminescence

T1 sequence (Q92915 1-252 isoform Q92915-2): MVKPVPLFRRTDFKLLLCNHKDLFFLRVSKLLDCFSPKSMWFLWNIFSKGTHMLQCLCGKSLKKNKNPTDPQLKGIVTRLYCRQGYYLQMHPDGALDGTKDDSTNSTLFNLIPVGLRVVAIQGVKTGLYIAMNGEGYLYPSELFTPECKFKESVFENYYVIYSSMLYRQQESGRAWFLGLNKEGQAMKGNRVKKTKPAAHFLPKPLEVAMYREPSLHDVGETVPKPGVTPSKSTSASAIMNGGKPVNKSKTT
T1 sequence (Q9UQD0 1763-1976 limits assumed): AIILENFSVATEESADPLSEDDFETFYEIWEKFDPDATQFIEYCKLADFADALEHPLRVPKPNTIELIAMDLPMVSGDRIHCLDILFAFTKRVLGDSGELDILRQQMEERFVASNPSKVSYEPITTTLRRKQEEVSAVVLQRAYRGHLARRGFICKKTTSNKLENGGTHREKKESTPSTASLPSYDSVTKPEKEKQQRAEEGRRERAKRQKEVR
Chain of full-length P. pyralis luciferase (P08659 whole entry N50D/N119G/S548I/K549A/L550V, looked up): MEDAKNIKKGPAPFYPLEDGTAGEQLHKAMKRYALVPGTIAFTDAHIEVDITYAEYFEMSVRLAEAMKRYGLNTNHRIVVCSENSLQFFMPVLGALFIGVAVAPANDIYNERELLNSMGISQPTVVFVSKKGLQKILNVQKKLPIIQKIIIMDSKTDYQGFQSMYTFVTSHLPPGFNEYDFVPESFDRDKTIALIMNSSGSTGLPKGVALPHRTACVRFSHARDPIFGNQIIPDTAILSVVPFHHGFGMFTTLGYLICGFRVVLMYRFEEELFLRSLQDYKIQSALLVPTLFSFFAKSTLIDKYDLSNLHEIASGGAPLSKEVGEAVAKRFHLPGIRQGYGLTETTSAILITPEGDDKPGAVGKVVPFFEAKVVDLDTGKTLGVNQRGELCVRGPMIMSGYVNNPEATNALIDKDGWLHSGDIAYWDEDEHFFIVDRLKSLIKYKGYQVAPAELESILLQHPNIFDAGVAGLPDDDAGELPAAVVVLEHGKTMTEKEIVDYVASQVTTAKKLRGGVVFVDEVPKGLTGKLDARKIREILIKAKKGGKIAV

| Molecule | Toxicity Assay % Fluor (Clone V cells [1]) | Toxicity Assay Z-score (Clone V cells [1]) | Split Luciferase Assay % Lum Set 1 [2, 5] | Split Luciferase Assay %Lum Set 2 [2, 5] | Split Luciferase Assay Z-score Set 1 ([2]; CC_NCI screening, LCA) | Split Luciferase Assay Z-score Set 2 ([2]; CC_NCI screening, LCA) | Split Luciferase Assay %Lum Avg ([2]; CC_NCI screening) | Luciferase Assay % Lum [3] | Luciferase Assay Z-score [3] | also measured |
| --- | --- | --- | --- | --- | --- | --- | --- | --- | --- | --- |
| Cc1ccc(F)c(NC(=O)Nc2ccc(-c3cccc4[nH]nc(N)c34)cc2)c1 [ABT-869] | 87.41% | -1.76 | 14.46% | 21.85% | -6.91 | -6.36 | 18.15% | 60.04% | -5.12 |  |
| C[C@]1(c2nc3c(C(N)=O)cccc3[nH]2)CCCN1 [ABT-888] | 107.03% | 0.98 | 75.34% | 93.63% | -1.99 | -0.52 | 84.48% | 105.22% | 0.67 |  |
| CN1CCN(CCOc2cc(OC3CCOCC3)c3c(Nc4c(Cl)ccc5c4OCO5)ncnc3c2)CC1 [AZD 0530] | 89.05% | -1.53 | 36.20% | 60.34% | -5.16 | -3.23 | 48.27% | 98.71% | -0.17 |  |
| O=C(c1cc(Cc2n[nH]c(=O)c3ccccc23)ccc1F)N1CCN(C(=O)C2CC2)CC1 [AZD 2281] | 93.24% | -0.94 | 117.73% | 92.59% | 1.43 | -0.60 | 105.16% | 105.07% | 0.65 |  |
| Cn1cnc2c(F)c(Nc3ccc(Br)cc3Cl)c(C(=O)NOCCO)cc21 [AZD 6244] | 108.13% | 1.14 | 100.34% | 90.51% | 0.03 | -0.77 | 95.42% | 96.05% | -0.51 |  |
| CN(C)C/C=C/C(=O)Nc1cc2c(Nc3ccc(F)c(Cl)c3)ncnc2cc1O[C@H]1CCOC1 [Afatinib] | 82.04% | -2.51 | 72.08% | 61.38% | -2.26 | -3.14 | 66.73% | 73.64% | -3.38 |  |
| CN(C)C/C=C/C(=O)Nc1cc2c(Nc3ccc(F)c(Cl)c3)ncnc2cc1O[C@H]1CCOC1 [BIBW2992] | 100.79% | 0.11 | 70.99% | 94.67% | -2.34 | -0.43 | 82.83% | 76.41% | -3.02 |  |
| C[C@@H](Oc1cc(-c2cnn(C3CCNCC3)c2)cnc1N)c1c(Cl)ccc(F)c1Cl [PF-2341066] | 82.92% | -2.39 | 59.03% | 48.89% | -3.31 | -4.16 | 53.96% |  |  |  |
| COc1cc2c(Nc3ccc(NC(=O)c4ccccc4)cc3)ncnc2cc1OCCCN1CCOCC1 [ZM447439] |  |  |  |  |  |  |  |  |  | Split Luciferase Assay Z-score Set 1 ([2]; CC_NCI screening): 1.70; Split Luciferase Assay % Lum Set 1 ([2]; CC_NCI screening): 120.99%; Split Luciferase Assay Z-score Set 2 ([2]; CC_NCI screening): -1.70; Split Luciferase Assay %Lum Set 2 ([2]; CC_NCI screening): 79.06%; Split Luciferase Assay %Lum Avg [2]: 100.03%; Luciferase Assay % Lum (full-length luciferase counter-screen) [3]: 98.24%; Luciferase Assay Z-score (full-length luciferase counter-screen) [3]: -0.23; Toxicity Assay % Fluor (CTB cell viability fluorescence) (Clone V cells [4]): 106.45%; Toxicity Assay Z-score (CTB cell viability) (Clone V cells [4]): 0.90 |
| FC(F)c1nc2ccccc2n1-c1nc(N2CCOCC2)nc(N2CCOCC2)n1 [ZSTK474] |  |  | 95.99% | 74.90% | -0.32 | -2.04 | 85.45% | 86.44% | -1.74 | Toxicity Assay % Fluor (Clone V cells [4]; human, 16 h, 30 µM): 95.63%; Toxicity Assay Z-score (Clone V cells [4]; human, 16 h, 30 µM): -0.61 |
| Bleomycin sulfate |  |  | 125.34% | 143.56% | 2.05 | 3.54 | 134.45% | 94.27% | -0.73 | Toxicity Assay % Fluor (Clone V cells [4]): 80.17%; Toxicity Assay Z-score (Clone V cells [4]): -2.77 |
| DNA-PK INHIBITOR V |  |  |  |  |  |  |  |  |  | Split Luciferase Assay Z-score Set 1 ([2]; CC_NCI screening): -0.59; Split Luciferase Assay % Lum Set 1 ([2]; CC_NCI screening): 92.73%; Split Luciferase Assay Z-score Set 2 ([2]; CC_NCI screening): -0.01; Split Luciferase Assay %Lum Set 2 ([2]; CC_NCI screening): 99.87%; Split Luciferase Assay %Lum Avg [2]: 96.30%; Luciferase Assay % Lum (full-length luciferase counter-screen) [3]: 82.55%; Luciferase Assay Z-score (full-length luciferase counter-screen) [3]: -2.23; Toxicity Assay % Fluor (CTB cell viability fluorescence) (Clone V cells [4]): 115.08%; Toxicity Assay Z-score (CTB cell viability) (Clone V cells [4]): 2.11 |
| LE 135 |  |  | 44.90% | 74.90% | -4.45 | -2.04 | 59.90% | 97.72% | -0.29 | Toxicity Assay % Fluor (Clone V cells [4]): 98.37%; Toxicity Assay Z-score (Clone V cells [4]): -0.23 |
| TNF-α |  |  |  |  |  |  |  |  |  | mean effect relative to that of triciribine [2]: over 2 fold; signal-background (S:B) ratio ([2]; 1 × 10^4 cells per 384-well): 2.05 ± 0.11 X background signal; signal-background (S:B) ratio ([2]; 2 × 10^4 cells per 384-well): 2.26 ± 0.18 X background signal; signal-background (S:B) ratio ([2]; 3 × 10^4 cells per 384-well): 2.60 ± 0.14 X background signal; signal-background (S:B) ratio ([2]; 4 × 10^4 cells per 384-well): 2.12 ± 0.16 X background signal; % luminescence (mean and SD, normalized to DMSO) ([2]; 50 ng/mL TNF-α, Clone V cells, 96-well plates): 210.8% ± 18.6%; % maximal luminescence, full-length luciferase (normalized mean and SD) ([3]; TNF-α 50 ng/mL, 96-well plates): 105.7% ± 2.5%; cell viability vs untreated cells (CTB fluorescence) (Clone V cells [4]): no significant difference in cell viability |
